Consider five compounds from paper PMC9785777, “Antidiabetic Potential of Novel 1,3,5-Trisubstituted-2-Thioxoimidazloidin-4-One Analogues: Insights into α-Glucosidase, α-Amylase, and Antioxidant Activities” (Pharmaceuticals, 2022).

Series [1] can be described thus: DPPH free radical scavenging assay. From the text: The antioxidant capability of compounds 5a and 7a was estimated utilizing the DPPH (2,2-diphenyl-1- picrylhydrazyl) scavenging assay to assess the free radical scavenger activity. DPPH is a stable free radical substrate with a purple color which upon reaction with an antioxidant compound, converts into 1,1-diphenyl-2-picryl hydrazine, a […] compound. The DPPH assay is widely applied for the investigation of superoxide radical scavenging activity. In this regard, compounds 5a and 7a were incubated at different concentrations (3.12, 6.25, 12.5, 25, 50, 100, and 200 µg/mL) with DPPH substrate and the absorption was assessed by ELISA at 510 nm. In our investigations, Trolox, a water-soluble analogue of vitamin E, was applied as a standard antioxidant reference drug. […] Further, Qamar et al. synthesized and evaluated the antioxidant activity of some novel N3-substituted-2-thiohydantoins.
According to Valko et al., the ELISA approach was used to analyze the free-radical DPPH scavenging activity of compounds (5a and 7a) at different concentrations (3.12, 6.25, 12.5, 25, 50, 100, and 200 µg/mL). The DPPH assay assesses the hydrogen-donating activity and thus provides an evaluation of the antioxidant activity via estimating the DPPH free-radical scavenging activity. The color intensity of the reaction mixture was measured after a purple-colored stable free radical (DPPH) was reduced into the yellow-colored diphenylpicryl hydrazinem. Briefly, 200 µL of different concentrations of compounds 5a and 7a were mixed with 50 µL of DPPH (0.659 mM) solution, and the mixture was incubated at 25 °C for 20 min. The absorbance of the reaction mixture was estimated after incubation at 510 nm. In our investigations, trolox was employed as standard reference drug. A control reaction was performed, and the inhibitory efficiency of DPPH radical-scavenging activity was determined using the equation below: % Inhibition = (A0 − A1)/A0 × 100 (1) where A0 is absorbance of […] and A1 is the absorbance of the compound.
On the technique in general: Loss of DPPH colour is used to gauge radical scavenging.

For series [2], the target named is T1, α-glucosidase enzyme (EC3.2.1.20) (Saccharomyces cerevisiae, UniProt P53341).
T1 construct: purchased Sigma-Aldrich
T1 sequence (P53341 whole entry): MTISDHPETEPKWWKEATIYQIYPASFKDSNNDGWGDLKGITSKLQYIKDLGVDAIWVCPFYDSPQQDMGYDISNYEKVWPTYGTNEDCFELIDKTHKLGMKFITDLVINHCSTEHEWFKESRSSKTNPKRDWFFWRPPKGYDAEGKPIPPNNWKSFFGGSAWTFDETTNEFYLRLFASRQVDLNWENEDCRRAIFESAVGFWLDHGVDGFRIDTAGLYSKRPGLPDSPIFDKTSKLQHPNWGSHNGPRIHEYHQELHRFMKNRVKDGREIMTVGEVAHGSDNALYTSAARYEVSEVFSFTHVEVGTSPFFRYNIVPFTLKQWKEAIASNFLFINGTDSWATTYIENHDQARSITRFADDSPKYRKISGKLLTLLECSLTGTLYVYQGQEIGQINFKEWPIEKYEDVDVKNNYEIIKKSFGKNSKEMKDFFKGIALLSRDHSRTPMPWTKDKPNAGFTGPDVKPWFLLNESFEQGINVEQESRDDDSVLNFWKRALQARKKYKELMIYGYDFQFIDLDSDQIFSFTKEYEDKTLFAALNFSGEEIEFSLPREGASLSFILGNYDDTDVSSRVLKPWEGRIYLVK
The series can be described thus: biochemical. The settings on record: for inhibition at 1 µg/mL / inhibition at 10 µg/mL / inhibition at 100 µg/mL / inhibition at 1000 µg/mL: read-out: % inhibition of α-glucosidase. The text has this:
The α-glucosidase enzyme is mainly expressed in the small intestine and catalyzes the breakdown of carbohydrates into glucose units by cleaving the glucosidic bonds. α-Glucosidase blockers are the first-line drugs for the treatment of non-insulin-dependent DM by suppressing carbohydrate hydrolysis and consequently retarding glucose absorption into the bloodstream and reducing postprandial hyperglycemia. α-Glucosidase is, thus, considered to be an attractive pharmaceutical target for the treatment of […] via control of the blood glucose levels. Accordingly, there is a continuous need to develop a potential class of α-glucosidase inhibitors. Toward this aim, we explored the potency of the synthesized compounds to inhibit the activity of α-glucosidase. We examined the inhibitory activity of the synthesized compounds following the reported assay by Peytam et al.. Thus, the compounds at different concentrations (1000, 100, 10, and 1 µg/mL) were incubated with α-glucosidase and subsequently […] was added and the absorbance was monitored at 405 nm. […] To further investigate the structural aspects of 1,3-thiohydantoin scaffold, a substitution at the N1-position with the methyl-proponate group was performed. […] Nevertheless, it has adverse gastrointestinal effects including diarrhea and flatulence. Thus, the discovery of a novel class of potent antidiabetic agents is urgently demanded.
An ELISA reader was used to assess the inhibition of α-glucosidase by 1,3,5-trisubstituted-2-thioxoimidazolidin-4-ones derivatives at various doses (1000, 100, 10, and 1 µg/mL) according to Peytam et al.. […] Then, the substrate (25 µL, 4 mM) was added to the mentioned mixture and allowed to incubate at 37 °C for 20 min. Finally, the change in absorbance at 405 nm was monitored using a Cytation 3 hybrid microplate reader (BioTek, Winooski, VT, USA). […] GraphPad prism 6.0 was used to calculate the IC50 values of the investigated compounds from the nonlinear regression curve (Systat Software, Inc. Tools for Science) (https://www.graphpad.com/scientific-software/prism/ (accessed on 1 September 2022)).

As for `Cc1c(C)c2c(c(C)c1O)CCC(C)(C(=O)O)O2` (centres unmarked) [Trolox, reference compound], the “%RSA (DPPH radical scavenging activity)” value in series [1] (3.12 µg/mL) was 11.3811%; in series [1] (6.25 µg/mL), 20.2046%; in series [1] (12.5 µg/mL) it was 32.4808%; in series [1] (25 µg/mL), 47.4425%; in series [1] (50 µg/mL) it was 63.2992%; in series [1] (100 µg/mL), 82.6087%. For the same compound, the “%RSA (DPPH radical scavenging activity)” value in series [1] (200 µg/mL) is on record as 89.0026%. The “DPPH free radical scavenging IC50” value in series [1] (n = 4) was determined as 58.09 µg/mL.
The term IC50 denotes the concentration at which inhibition is half-maximal. Low values mean greater potency in that assay, high ones weaker potency in that assay. As usually defined, the inhibition is the change of the read-out against control, counted positive when it falls. One may read the melting point as the temperature, or range, at which the solid turns liquid. As for `COC(=O)CCN1C(=S)N(/N=C(\C)c2ccccc2O)C(=O)/C1=C/c1cc(Br)ccc1OC(C)=O` [Compound 7b, Methyl [5-(5-bromo-2-acetoxybenzylidene)-4-oxo-3-(2-hydroxyphenylethylidene)amino-2-thioxoimidazolidin-1-yl] propionate], the melting point turned out to be 172 °C. In series [2], 21.8 µM corresponded to half-maximal inhibition (IC50), the inhibition at 1 µg/mL came out at 28%, the inhibition at 10 µg/mL was 47.8% and the inhibition at 100 µg/mL was determined as 70.4%. Besides, the inhibition at 1000 µg/mL in series [2] came out at 86.5%.
For the compound `COC(=O)CCN1C(=S)N(/N=C(\C)c2ccccc2O)C(=O)/C1=C/c1cc(Br)ccc1O` [Compound 5b, Methyl [5-(5-Bromo-2-hydroxybenzylidene)-4-oxo-3-(2-hydroxyphenylethylidene)amino-2-thioxoimidazolidin-1-yl] propionate], the melting point came out at 192 °C. For the same compound, in series [2], the IC50 is 21.3 µM, the inhibition at 1 µg/mL is 27.6%, the inhibition at 10 µg/mL is 50.3% and the inhibition at 100 µg/mL amounted to 71.4%. In series [2], the inhibition at 1000 µg/mL amounted to 87.4%.
As for `C/C(=N\N1C(=O)/C(=C/c2ccccc2O)NC1=S)c1ccccc1O` [Compound 4a, 5-(2-Hydroxybenzylidene)-3-(2-hydroxyphenylethylidene)-amino-2-thioxoimidazolidin-4-one], the melting point was 256 °C. Also, in series [2], the IC50 was 57.1 µM, the inhibition at 1 µg/mL was determined as 24.5%, the inhibition at 10 µg/mL was 44.9% and the inhibition at 100 µg/mL came out at 62.6%. The inhibition at 1000 µg/mL in series [2] came out at 83.1%.
For `C/C(=N\N1C(=O)/C(=C/c2cc(Br)ccc2O)NC1=S)c1ccccc1O` [Compound 4b, 5-(5-Bromo-2-hydroxybenzylidene)-3-(2-hydroxyphenylethylidene)-amino-2-thioxoimidazolidin-4-ones], the melting point worked out at 263 °C. In series [2], the IC50 is about 72.4 µM, the inhibition at 1 µg/mL worked out at 20.4%, the inhibition at 10 µg/mL stood at 36.4% and the inhibition at 100 µg/mL stood at 58.9%. Besides, the inhibition at 1000 µg/mL in series [2] was 84.7%.
